Measured values: US5298494A, “Monosaccharides having anti-proliferation and anti-inflammatory activity, compositions and uses thereof” (Greenwich Pharmaceuticals Incorporated, priority 1993, dated 1994)

Experiments:
[1] = tested on: GS-109-V-20 human skin cell fibroblasts; test: Fibroblast assay: proliferation of GS-109-V-20 skin cell fibroblasts; type: cell-based; settings: for effect on GS-109-V-20 fibroblast proliferation in words: text
Procedure: The effect of methyl 3-O-3'-(N',N'-dimethylamino-n-propyl)-6-deoxy-D-glucopyranoside on the proliferative capacity of human GS-109-V-20 skin fibroblasts was measured with the use of ^3 H-thymidine incorporation assay. Cultured skin cells were detached from the surface of tissue culture flasks mechanically with a Teflon scraper. The cells were washed, resuspended in incubation medium and the viabilities determined. These cells were then plated in triplicate at a density of 1×10^3 cells/0.1 ml/microtiter well. To these cells was added 0.1 ml incubation medium containing the methyl 3-O-3'-(N',N'-dimethylamino-n-propyl)-6-deoxy-D-glucopyranoside compound.
(§1) After 3 days of culture, 1#uCi ^3 H-thymidine was added in 50 ul volume to each culture well of the microtiter plates. Eighteen hours later, each of the GS-109-V-20 cultures was examined morphologically for evidence of drug-induced toxicity such as cell rounding or granularity. The ^3 H-thymidine-pulsed cells were then precipitated and the amount of ^3 H-thymidine incorporation was counted on a liquid scintillation counter.
Methyl 3-O-3'-(N',N'-dimethylamino-n-propyl)-6-deoxy-D-glucopyranoside was suspended directly into the medium by extensive sonication, without being filter-sterilized. A range of doses of this compound was used to measure effects of this compound upon GS-109-V-20 cell proliferation. The following doses were used:
The human skin cell fibroblast line, GS-109-V-20, was obtained from the American Type Culture-Collection. […] These cells were selected for use because they are considered to exist in an initiated state, as opposed to being normal or transformed, and have a more extensive population doubling time and survival period in culture than do normal fibroblasts. In this regard, they would more closely reflect the biological characteristics of psoriatic or rheumatoid synovial fibroblasts which also proliferate more extensively than do normal fibroblasts, but not as extensively as immortalized transformed tumor cells.
The number of GS-109-V-20 cells was expanded for use in the described assays by culture in 25 cm^2 flasks at 37° C. in an atmosphere of 5% CO2 in air. At approximately 4-5 day intervals, or when confluence was reached, the cells were passaged. This was accomplished by detaching the cells by trypsinization, washing and reseeding the cells at a lower density into fresh tissue culture flasks.

GS-109-V-20 skin cells = test: Morphological examination of GS-109-V-20 cultures for drug-induced toxicity; type: cell-based, human
Procedure: as §1

With `COC1O[C@H](C)[C@@H](O)[C@H](OCCCN(C)C)[C@H]1O` (stereo partly drawn) [V, Methyl 3-O-3'-(N',N'-dimethylamino-n-propyl)-6-deoxy-D-glucopyranoside] the “^3 H-Thymidine uptake by GS-109-V-20 skin cells” value (from here on “^3 H-Thymidine uptake”) ([1]; 0.001 ug/ml) was 2,557 ± 258 cpm, the “^3 H-Thymidine uptake” value ([1]; 0.01 ug/ml) was 976 ± 469 cpm and the “^3 H-Thymidine uptake” value ([1]; 0.1 ug/ml) was 1,052 ± 177 cpm. The “^3 H-Thymidine uptake” value ([1]; 1 ug/ml) was 1,237 ± 301 cpm, the “^3 H-Thymidine uptake” value ([1]; 2.5 ug/ml) was 1,044 ± 106 cpm and the “^3 H-Thymidine uptake” value ([1]; 10 ug/ml) was 900 ± 189 cpm. The “^3 H-Thymidine uptake” value ([1]; 25 ug/ml) was 946 ± 41 cpm, the “^3 H-Thymidine uptake” value ([1]; 100 ug/ml) was 647 ± 541 cpm and the inhibition at 0.001 µg/mL ([1]; Homo sapiens, Fibroblast, 0.001 ug/ml, read-out: % effect on GS-109-V-20 proliferation) was 12%. The inhibition at 0.01 µg/mL ([1]; Homo sapiens, Fibroblast, 0.01 ug/ml, read-out: % effect on GS-109-V-20 proliferation) was 66%, the inhibition at 0.1 µg/mL ([1]; Homo sapiens, Fibroblast, 0.1 ug/ml, read-out: % effect on GS-109-V-20 proliferation) was 64% and the inhibition at 1 µg/mL ([1]; Homo sapiens, Fibroblast, 1 ug/ml, read-out: % effect on GS-109-V-20 proliferation) was 58%. The inhibition at 2.5 µg/mL ([1]; Homo sapiens, Fibroblast, 2.5 ug/ml, read-out: % effect on GS-109-V-20 proliferation) was 64%, the inhibition at 10 µg/mL ([1]; Homo sapiens, Fibroblast, 10 ug/ml, read-out: % effect on GS-109-V-20 proliferation) was 69% and the inhibition at 25 µg/mL ([1]; Homo sapiens, Fibroblast, 25 ug/ml, read-out: % effect on GS-109-V-20 proliferation) was 68%. For the same molecule, the inhibition at 100 µg/mL ([1]; Homo sapiens, Fibroblast, 100 ug/ml, read-out: % effect on GS-109-V-20 proliferation) was 78%, the “effect on GS-109-V-20 fibroblast proliferation in words” value ([1]; listed as Methyl 3-O-3'-(N',N'-dimethylamino-n-propyl)-6-deoxy-D-glucopyranoside) was “inhibitory effects on the proliferation of GS-109-V-20 human skin cell fibroblasts” and the “effect on GS-109-V-20 fibroblast proliferation in words” value ([1]; listed as methyl 3-O-3'-(N',N'-dimethylamino-n-propyl)-6-deoxy-D-glucopyranoside) was “A significant inhibitory effect was observed in a non-dose-dependent manner”. For the same molecule, the “cytotoxicity in GS-109-V-20 cultures, in words” value (GS-109-V-20 skin cells) was “without evidence of cytotoxicity”.
